For series [1], the system named is normal murine melanocytes treated with alpha melanocyte stimulating hormone (α-MSH). Nature of the series: Melanin content in melanocytes treated with α-MSH. The class given is cell-based. The following applies: 48 hours, α-MSH 100 nM; PBPE 20 µM, tesmilifene 10 µM, umbelliprenin 40 µM (Figure 3). The procedure:
(§1) Normal murine melanocytes were seeded and treated for 48 hours with increasing doses of umbelliprenin, 100µM of kojic acid (KA) or carrier solvent (DMSO). […] The cell pellet was washed twice with phosphate buffer saline, transferred in an Eppendorf vial and centrifuged at 5000 g for 5 minutes at 4°C. The supernatant was discarded. 200 µL of water and 1 mL of EtOH/Ether (1/1) were added to precipitate melanin. The mixture was incubated for 15 minutes at room temperature, centrifuged at 5000 g for 5 minutes and the supernatant was discarded. The precipitate was solubilized by 300 µL of a mixture of aqueous sodium hydroxide (1 M)/DMSO 90/10 after heating at 80°C for 1 hour. The absorbance was measured at 405 nm. The melanin content was expressed as a percentage of control (=100%).

The subject of series [2] is melanogenic genes (Tyrosinase, Mitf, TRP-1 and TRP-2). Nature of the series: Expression of genes encoding melanogenic proteins (RT-qPCR). To be noted: 48 hours; PBPE 20 µM, tesmilifene 10 µM, umbelliprenin 40 µM (Figure 8). The class given is cell-based, murine.
Protocol: We then performed RNA extraction. We added Trizol® (1 ml) on treated cells. After incubation (5 minutes at room temperature), we transferred the cells suspension into Eppendorf vial. Chloroform (200 µl at 4°C) was added, the mixture was manually stirred for 15 seconds, incubated for 5 minutes at room temperature and then centrifuged at 16000 g for 10 minutes at 4°C. Aqueous colorless layer was collected and isopropanol (500 µL at -20°C) was added. The mixture was manually stirred for 15 seconds, incubated for 15 minutes at room temperature and the centrifuged at 16200 g for 10 minutes at 4°C. The supernatant was discarded and the precipitate was washed with 1 mL of EtOH/H2O (3/1) at -20°C. The mixture was centrifuged at 16000 g for 10 minutes at 4°C, the supernatant discarded and the pellet was allowed to dry for 10 minutes at room temperature. The pellet was dissolved in RNAse-free water (30 µL). The amount and purity of RNA was determined by measuring the absorbance at 230, 260 and 280 nm with a nanodrop ND-1000 spectrophotometer (Thermo Scientific) according to the manufacturer's instructions.
We then performed RT-qPCR experiment. We prepared a mixture containing RNA (1 µg), reverse transcriptase (1 µL), the reaction mixture « iScript®5x » (4 µL) and RNAse-free water (qsp 20 µl). The mixture was vortexed, centrifuged for few seconds and then introduced into a thermocycler. Reverse transcription was performed using the following program : 5 min at 25°C, 30 min at 42°C and then 5 min at 85°C. Eppendorf vial was maintained at 4°C until the beginning of the qPCR experiment. We then examined the expression of melanogenic genes (Tyrosinase, Mitf, TRP-1 and TRP-2) and housekeeping genes (glyceraldehyde 3-phosphate dehydrogenase and Cyclophiline A1) by qPCR. For this purpose, cDNA was diluted with RNAse-free water (180 µL) and then we prepared a mixture containing: primers, Syber Green® and RNAse-free water. We mixed in a 96-well plate cDNA (5 µL) and the mixture (20 µL). […]
Series [3] deals with normal murine melanocytes. Nature of the series: Melanin content in normal murine melanocytes (basal). The class given is cell-based. The following applies: 48 hours; for melanin content: increasing doses, expressed as percentage of control (Figures 1, 2). As to the method: as §1
Normal murine melanocytes were seeded and treated for 48 hours with increasing doses of PBPE, tesmilifene (Tes) or carrier solvent (ethanol).
Normal murine melanocytes were seeded and treated for 48 hours with fixed doses of PBPE, tesmilifene, umbelliprenin or a combination of those, or carrier solvent (DMSO for umbelliprenin, ethanol for tesmilifene or PBPE and EtOH/DMSO 1/1 for the combination).
(§2) The cell pellet was washed twice with phosphate buffer saline, transferred in an Eppendorf vial and centrifuged at 5000 g for 5 minutes at 4°C. The supernatant was discarded. Cell lysis was performed with an aqueous solution of sodium deoxycholate 0.5% (1 mL per cell pellet). The suspension was incubated at 0°C for 15 minutes and then 3 mL of a freshly prepared solution of L-DOPA (0.1% w/w) in phosphate buffer at 0.1 M (pH 6.8) was added to the cell lysate. The mixture was incubated at 37°C for 10 min. Tyrosinase activity was measured with a spectrophotometer to quantify the oxidation of L-DOPA to DOPAchrome. The absorbance was measured at 475 nm. The tyrosinase activity was expressed as a percentage of control (=100%). Control corresponds to the tyrosinase activity measured in the cell lysate from normal murine melanocytes treated with carrier solvent.

The subject of series [4] is normal murine melanocytes. Nature of the series: Cytotoxicity, trypan blue cell viability. To be noted: 24, 48 and 72 hours; PBPE 20 µM, tesmilifene 10 µM, umbelliprenin 40 µM (Figure 9).
Protocol: Normal murine melanocytes were seeded and treated for 24, 48 and 72 hours with PBPE (20 µM), tesmilifene (10 µM), umbelliprenin (40 µM) or carrier solvent (DMSO for umbelliprenin and ethanol for tesmilifene or PBPE). Cells were detached by trypsinization, collected in phosphate buffer saline and centrifuged at 1500 rpm for 5 minutes at 4°C. Cells pellets were resuspended in the trypan blue solution (0.25%, w/v in PBS) and counted in a Malassez cell under a light microscope. The percentage of cell viability was calculated using the following formula: % cell viability = [1-(blue cells/total cells)] x 100 [formula]
The test system of the next series is Tyrosinase. The experiment in a line: Tyrosinase activity in lysates of treated melanocytes (L-DOPA oxidation). The class given is cell-based, murine. The following applies: 48 hours; PBPE 20 µM, tesmilifene 10 µM, umbelliprenin 40 µM; cell lysate, percentage of control (Figure 6). As to the method:
as §2, with “Tyrosinase activity was measured using a previously reported procedure (Ando H, J. Lipid Res., 1999, 40, p. 1312). […] The cell” for “The cell”, “carrier solvent. Melanin content of treated murine melanocytes was also measured as described in example 4.” for “carrier solvent.”

Series [5] relates to normal murine melanocytes exposed to ultraviolet (UV-B) irradiation. Nature of the series: Melanin content in melanocytes exposed to UV-B irradiation. The class given is cell-based. The following applies: UV-B 20 mJ/cm^2; PBPE 20 µM, tesmilifene 10 µM, umbelliprenin 40 µM (Figure 4). The procedure: as §1
In series [6] the test system is normal murine melanocytes. The experiment in a line: Whitening effect on melanocyte cell pellet (photograph). The following applies: umbelliprenin 40 µM, 48 hours (Figure 7). The class given is cell-based. The procedure: Normal murine melanocytes were seeded and treated for 48 hours with umbelliprenin (40 µM) or carrier solvent (DMSO). […] Cells pellet was washed with phosphate buffer saline, centrifuged and the supernatant was discarded. Cell pellets were then photographed.

Setting [7] is: PBPE 20 µM, tesmilifene 10 µM, umbelliprenin 40 µM vs kojic acid 100 µM (Figure 6).

Turning to `c1ccc(Cc2ccc(OCCN3CCCC3)cc2)cc1` [PBPE], the “melanin content in presence of α-MSH” value in series [1] is given as “inhibits the melanogenic effect of α-MSH”. Further, in series [2], the “expression of melanogenic genes” value is listed as “this effect was not observed”. In addition, the melanin content result in series [3] is “significantly decrease melanin content in a dose dependent manner”. Moreover, the “diminution of melanin content compared with kojic acid” value (shortened to “diminution … compared with kojic acid”) in series [3] (setting [7]) is listed as “higher”. Also, the cell viability result in series [4] was “no significant impact”. The tyrosinase activity result in the series on Tyrosinase is “decrease tyrosinase activity levels”. The “melanin content after UV-B irradiation” value in series [5] was “inhibits the melanogenic effect of UV-B”.

Consider `CCN(CC)CCOc1ccc(Cc2ccccc2)cc1` [tesmilifene], for which the “melanin content in presence of α-MSH” value in series [1] is reported as “inhibits the melanogenic effect of α-MSH”. For the same molecule, the “expression of melanogenic genes” value in series [2] is recorded as “this effect was not observed”. In addition, the melanin content result in series [3] is reported as “significantly decrease melanin content in a dose dependent manner”. Moreover, in series [3] (setting [7]), the “diminution … compared with kojic acid” value was “higher”. In addition, the tyrosinase activity entry with Tyrosinase was “decrease tyrosinase activity levels”. The “melanin content after UV-B irradiation” value in series [5] is “inhibits the melanogenic effect of UV-B”.

As for `CC(C)=CCC/C(C)=C/CC/C(C)=C/COc1ccc2ccc(=O)oc2c1` [umbelliprenin], the “melanin content in presence of α-MSH” value in series [1] was “inhibits the melanogenic effect of α-MSH”. Also, in series [2], the “expression of melanogenic genes” value is recorded as “significantly repressed”. Further, in series [3], the melanin content entry was “significantly decreases melanin content in a dose dependent manner”. Further, the “diminution … compared with kojic acid” value in series [3] (setting [7]) and in series [3] (increasing doses of umbelliprenin vs 100µM kojic acid (Figure 1)) was “higher” each time. Also, the “appearance of melanocytes (cell pellet) versus carrier solvent” value in series [6] is given as “much lighter”. In addition, the tyrosinase activity result in the series on Tyrosinase is recorded as “decrease tyrosinase activity levels”. Besides, the “melanin content after UV-B irradiation” value in series [5] is “inhibits the melanogenic effect of UV-B”.

The values above are taken from patent EP3097904A1, “DEPIGMENTING AGENTS TO LIGHTEN THE SKIN” (priority 2015, dated 2016).
